In test [1] the test system is FES^S700C HL-60 cells. Description: Morphological inspection after PMA-induced differentiation. It counts as cell-based, human. As for the experimental part: One day prior to induction of differentiation, cells were diluted to 0.4 × 10^6 cells/mL. […] Neutrophil differentiation was induced by addition of all-trans-retinoic acid (1 µM) and dimethylsulfoxide (1.25%) for 72–96 h. For morphological inspection, images were taken on an EVOS FL Auto 2 Imaging System (Thermo Fisher) at ×20 magnification.
Supplementary Figure 10. Analysis of putative sgRNA off-target site. Analysis of the only predicted coding off-target of the sgRNA target sequence employed for FESS700C mutagenesis, located in the TTC16 gene. Genomic region surrounding putative off-target site was amplified by PCR, followed by Sanger sequencing analysis. No off-target gene editing events were observed.
Supplementary Figure 11. Morphological inspection of WT and FESS700C HL-60 cells after PMA-induced differentiation towards macrophages. Cells were treated with vehicle or indicated concentrations of WEL028 during PMA-induced differentiation toward macrophages. Wild-type and […]
are representative for multiple acquired images at 20x magnification from replicates (n = 3).
(also on this page, place not known: off -target off -target FES S700C PMA -induced W ild-type PAM Predicted TTC16 (NM_144965) HL-60 WT HL-60 125 μm Non-differentiated PMA (16 nM, 48 h) HL-60 WTHL-60 FESS700C Vehicle Vehicle WEL028 (100 nM) WEL028 (1 µM))

Test [2] relates to FES^S700C HL-60 cells. Description: Proliferation ratio during neutrophil differentiation. It counts as cell-based, human. The settings on record: 100 nM; Supplementary Figure 12d; individual replicates; listed as WEL028.
In another test the target is ABL2 (Arg) (Homo sapiens, UniProt P42684). Description: SelectScreen kinase assay. The conditions noted are these: for Inhibition at 1 µM (%): ABL2 (Arg), ZLYTE, ATP Km app.
For the next test, the target named is EPHA7 (Homo sapiens, UniProt Q15375). Briefly: SelectScreen kinase assay. The settings on record: 1 h, 1 μM WEL028, 1 h preincubation.
The target of a further test is EPHB1 (Homo sapiens, UniProt P54762). Description: SelectScreen kinase assay.
The target of the next test is T1, EPHB4 (Homo sapiens, UniProt P54760).
T1 sequence (P54760 16-987): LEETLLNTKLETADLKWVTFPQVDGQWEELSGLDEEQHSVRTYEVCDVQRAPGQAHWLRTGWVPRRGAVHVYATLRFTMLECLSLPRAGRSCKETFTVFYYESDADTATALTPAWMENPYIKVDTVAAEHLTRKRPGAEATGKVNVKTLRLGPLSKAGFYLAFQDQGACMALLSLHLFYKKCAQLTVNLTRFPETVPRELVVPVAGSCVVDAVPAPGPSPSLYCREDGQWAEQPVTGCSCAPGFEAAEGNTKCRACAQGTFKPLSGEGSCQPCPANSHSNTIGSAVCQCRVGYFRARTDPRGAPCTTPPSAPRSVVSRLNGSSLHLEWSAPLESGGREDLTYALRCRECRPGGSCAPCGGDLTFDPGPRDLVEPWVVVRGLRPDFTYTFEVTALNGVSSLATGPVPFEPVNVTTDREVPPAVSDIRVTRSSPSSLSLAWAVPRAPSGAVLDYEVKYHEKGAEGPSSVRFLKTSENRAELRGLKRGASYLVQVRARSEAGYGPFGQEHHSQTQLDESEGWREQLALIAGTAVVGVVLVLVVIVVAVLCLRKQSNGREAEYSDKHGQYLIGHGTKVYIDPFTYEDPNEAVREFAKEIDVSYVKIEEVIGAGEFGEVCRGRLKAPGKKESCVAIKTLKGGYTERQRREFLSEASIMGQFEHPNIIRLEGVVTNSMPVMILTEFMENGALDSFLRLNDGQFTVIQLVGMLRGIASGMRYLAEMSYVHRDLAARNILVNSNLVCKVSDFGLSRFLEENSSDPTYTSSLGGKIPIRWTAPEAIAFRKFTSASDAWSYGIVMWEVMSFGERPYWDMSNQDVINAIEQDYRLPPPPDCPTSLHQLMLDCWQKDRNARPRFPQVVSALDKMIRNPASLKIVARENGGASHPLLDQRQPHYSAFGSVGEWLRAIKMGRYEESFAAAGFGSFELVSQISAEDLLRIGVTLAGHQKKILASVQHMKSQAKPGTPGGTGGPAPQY
Briefly: SelectScreen kinase assay. The settings on record: for Inhibition at 1 µM (%): EPHB4, ZLYTE, ATP Km app.

Test [3] concerns the target PIK3CB/PIK3R2 (p110 beta/p85 beta) (Homo sapiens, UniProt P42338). Briefly: SelectScreen kinase assay.
Method: (§1) Selectivity profiling assays were performed by the Invitrogen SelectScreen™ Services. […] The concentration of ATP was selected to be equal to the KM, unless indicated otherwise.
A further test deals with T2, SGK (SGK1) (Homo sapiens, UniProt O00141).
T2 sequence (O00141 1-431): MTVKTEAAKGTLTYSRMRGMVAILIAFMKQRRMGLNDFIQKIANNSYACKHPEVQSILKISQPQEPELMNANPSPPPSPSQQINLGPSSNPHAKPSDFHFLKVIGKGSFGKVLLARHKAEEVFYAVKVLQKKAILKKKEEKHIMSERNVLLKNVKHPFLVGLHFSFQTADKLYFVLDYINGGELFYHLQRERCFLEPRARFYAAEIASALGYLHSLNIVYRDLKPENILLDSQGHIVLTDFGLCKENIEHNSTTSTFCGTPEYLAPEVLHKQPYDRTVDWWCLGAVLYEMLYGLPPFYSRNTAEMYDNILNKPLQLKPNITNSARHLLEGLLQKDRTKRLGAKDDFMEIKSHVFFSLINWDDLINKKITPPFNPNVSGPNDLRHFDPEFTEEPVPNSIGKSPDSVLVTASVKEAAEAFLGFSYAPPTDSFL
Briefly: SelectScreen kinase assay.

Where [4] appears, read: 1 h, 1 μM WEL028, 1 h preincubation.

Molecules are shown by their SMILES. Values joined by “and” are separate entries in the source; they are usually repeats but may differ in a detail not shown here. Equal entries are not always repeated. Where two headings read alike, the source gives them in different places.

Chain of EPHB1 (P54762 18-984): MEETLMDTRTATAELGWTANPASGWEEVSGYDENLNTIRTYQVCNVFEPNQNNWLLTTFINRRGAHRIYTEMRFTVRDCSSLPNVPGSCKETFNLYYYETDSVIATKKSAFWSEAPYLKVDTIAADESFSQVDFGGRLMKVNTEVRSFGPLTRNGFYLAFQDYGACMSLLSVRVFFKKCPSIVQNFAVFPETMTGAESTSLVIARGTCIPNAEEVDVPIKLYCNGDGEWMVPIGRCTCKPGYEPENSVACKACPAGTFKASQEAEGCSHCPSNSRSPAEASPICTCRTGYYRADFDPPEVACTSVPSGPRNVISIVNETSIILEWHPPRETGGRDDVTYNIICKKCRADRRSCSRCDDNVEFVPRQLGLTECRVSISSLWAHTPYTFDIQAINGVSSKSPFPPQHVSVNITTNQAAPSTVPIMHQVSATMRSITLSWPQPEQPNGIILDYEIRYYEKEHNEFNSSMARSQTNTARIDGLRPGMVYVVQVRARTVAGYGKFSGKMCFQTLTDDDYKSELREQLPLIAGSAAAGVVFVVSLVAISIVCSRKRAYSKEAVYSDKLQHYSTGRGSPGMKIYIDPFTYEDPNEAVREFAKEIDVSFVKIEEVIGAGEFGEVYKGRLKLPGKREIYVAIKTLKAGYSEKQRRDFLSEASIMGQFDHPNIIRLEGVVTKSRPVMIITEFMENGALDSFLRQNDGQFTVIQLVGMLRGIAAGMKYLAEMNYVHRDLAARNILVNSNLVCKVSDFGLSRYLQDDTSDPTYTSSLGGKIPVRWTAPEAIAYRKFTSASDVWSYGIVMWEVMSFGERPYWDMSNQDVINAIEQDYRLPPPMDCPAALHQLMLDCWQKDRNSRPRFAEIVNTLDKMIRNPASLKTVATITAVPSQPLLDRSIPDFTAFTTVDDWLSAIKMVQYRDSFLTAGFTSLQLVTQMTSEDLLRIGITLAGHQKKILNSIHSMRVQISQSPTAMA
Chain of ABL2 (Arg) (P42684 whole entry): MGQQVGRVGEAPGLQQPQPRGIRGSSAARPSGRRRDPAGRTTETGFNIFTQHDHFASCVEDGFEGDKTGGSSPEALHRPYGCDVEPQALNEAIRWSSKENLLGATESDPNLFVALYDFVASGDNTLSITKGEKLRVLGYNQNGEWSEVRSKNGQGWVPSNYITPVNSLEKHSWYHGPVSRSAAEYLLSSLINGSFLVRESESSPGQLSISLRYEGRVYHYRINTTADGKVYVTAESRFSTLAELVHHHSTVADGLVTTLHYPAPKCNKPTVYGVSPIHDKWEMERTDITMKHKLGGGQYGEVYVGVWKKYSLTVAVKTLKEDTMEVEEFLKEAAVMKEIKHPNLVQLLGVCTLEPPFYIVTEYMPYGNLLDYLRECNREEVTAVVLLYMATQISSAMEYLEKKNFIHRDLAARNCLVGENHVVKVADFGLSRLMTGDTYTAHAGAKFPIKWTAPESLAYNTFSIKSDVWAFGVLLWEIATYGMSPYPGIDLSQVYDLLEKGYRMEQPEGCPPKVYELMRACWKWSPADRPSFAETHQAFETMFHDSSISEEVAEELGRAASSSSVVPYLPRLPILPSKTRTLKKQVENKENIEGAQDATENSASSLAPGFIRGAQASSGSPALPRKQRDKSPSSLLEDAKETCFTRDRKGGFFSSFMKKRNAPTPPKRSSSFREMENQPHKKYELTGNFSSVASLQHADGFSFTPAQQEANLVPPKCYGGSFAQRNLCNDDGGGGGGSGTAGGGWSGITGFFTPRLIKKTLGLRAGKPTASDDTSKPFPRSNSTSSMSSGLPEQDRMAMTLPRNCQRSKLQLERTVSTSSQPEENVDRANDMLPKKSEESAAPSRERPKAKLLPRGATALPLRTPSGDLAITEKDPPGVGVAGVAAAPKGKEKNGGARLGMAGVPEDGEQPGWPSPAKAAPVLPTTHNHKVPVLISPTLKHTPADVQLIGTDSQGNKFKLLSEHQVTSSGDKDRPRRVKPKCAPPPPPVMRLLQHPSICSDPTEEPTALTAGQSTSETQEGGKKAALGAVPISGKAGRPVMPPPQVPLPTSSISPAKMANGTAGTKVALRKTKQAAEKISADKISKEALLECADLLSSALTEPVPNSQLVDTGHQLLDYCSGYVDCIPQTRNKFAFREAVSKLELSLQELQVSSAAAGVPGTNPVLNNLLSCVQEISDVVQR
Chain of PIK3CB/PIK3R2 (p110 beta/p85 beta) (P42338 whole entry): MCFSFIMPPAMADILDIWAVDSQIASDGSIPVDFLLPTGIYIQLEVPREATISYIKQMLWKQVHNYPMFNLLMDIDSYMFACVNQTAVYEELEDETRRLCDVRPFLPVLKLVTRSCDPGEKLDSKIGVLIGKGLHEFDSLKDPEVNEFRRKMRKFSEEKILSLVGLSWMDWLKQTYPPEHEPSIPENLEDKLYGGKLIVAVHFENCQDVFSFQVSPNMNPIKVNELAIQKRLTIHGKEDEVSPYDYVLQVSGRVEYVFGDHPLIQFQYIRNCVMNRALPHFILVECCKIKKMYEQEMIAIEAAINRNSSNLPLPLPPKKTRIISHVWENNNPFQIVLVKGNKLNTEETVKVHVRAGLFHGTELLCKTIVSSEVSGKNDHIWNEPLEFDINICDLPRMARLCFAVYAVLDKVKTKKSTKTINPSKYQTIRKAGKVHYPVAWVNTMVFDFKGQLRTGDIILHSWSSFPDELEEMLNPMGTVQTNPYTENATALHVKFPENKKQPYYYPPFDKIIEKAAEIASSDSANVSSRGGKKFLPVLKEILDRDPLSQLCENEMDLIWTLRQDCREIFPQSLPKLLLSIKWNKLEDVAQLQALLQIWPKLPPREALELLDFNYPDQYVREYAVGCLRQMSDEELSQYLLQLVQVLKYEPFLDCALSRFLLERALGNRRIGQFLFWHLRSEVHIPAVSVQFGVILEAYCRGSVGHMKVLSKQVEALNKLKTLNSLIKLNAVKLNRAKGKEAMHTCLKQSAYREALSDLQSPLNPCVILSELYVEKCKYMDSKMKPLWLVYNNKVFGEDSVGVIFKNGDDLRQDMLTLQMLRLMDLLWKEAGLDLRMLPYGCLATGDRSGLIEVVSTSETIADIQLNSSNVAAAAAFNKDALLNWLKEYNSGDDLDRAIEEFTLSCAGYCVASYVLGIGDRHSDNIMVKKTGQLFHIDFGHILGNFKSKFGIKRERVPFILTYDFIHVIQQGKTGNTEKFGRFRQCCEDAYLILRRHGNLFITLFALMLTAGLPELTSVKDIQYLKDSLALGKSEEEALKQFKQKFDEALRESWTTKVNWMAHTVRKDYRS
Chain of PIK3CB/PIK3R2 (p110 beta/p85 beta) (O00459 whole entry partner): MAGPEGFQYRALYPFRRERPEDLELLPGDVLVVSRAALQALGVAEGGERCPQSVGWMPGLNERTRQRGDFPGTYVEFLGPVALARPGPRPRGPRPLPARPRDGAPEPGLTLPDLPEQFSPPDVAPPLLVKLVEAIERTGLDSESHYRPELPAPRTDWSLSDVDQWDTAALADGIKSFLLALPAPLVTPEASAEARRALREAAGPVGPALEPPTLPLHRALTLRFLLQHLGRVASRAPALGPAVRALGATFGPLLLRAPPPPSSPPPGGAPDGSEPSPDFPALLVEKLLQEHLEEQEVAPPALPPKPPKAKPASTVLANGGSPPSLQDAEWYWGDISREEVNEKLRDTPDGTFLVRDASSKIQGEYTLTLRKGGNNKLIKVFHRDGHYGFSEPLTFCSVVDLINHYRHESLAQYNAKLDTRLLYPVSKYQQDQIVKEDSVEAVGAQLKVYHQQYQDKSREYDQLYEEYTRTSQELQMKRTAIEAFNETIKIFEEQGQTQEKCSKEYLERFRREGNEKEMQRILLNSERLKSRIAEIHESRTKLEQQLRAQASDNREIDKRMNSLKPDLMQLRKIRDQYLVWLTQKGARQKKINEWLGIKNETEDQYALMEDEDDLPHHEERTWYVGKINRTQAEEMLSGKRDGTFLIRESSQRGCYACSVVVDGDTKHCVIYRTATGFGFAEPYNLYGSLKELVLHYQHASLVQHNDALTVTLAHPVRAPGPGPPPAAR
Chain of EPHA7 (Q15375 28-998): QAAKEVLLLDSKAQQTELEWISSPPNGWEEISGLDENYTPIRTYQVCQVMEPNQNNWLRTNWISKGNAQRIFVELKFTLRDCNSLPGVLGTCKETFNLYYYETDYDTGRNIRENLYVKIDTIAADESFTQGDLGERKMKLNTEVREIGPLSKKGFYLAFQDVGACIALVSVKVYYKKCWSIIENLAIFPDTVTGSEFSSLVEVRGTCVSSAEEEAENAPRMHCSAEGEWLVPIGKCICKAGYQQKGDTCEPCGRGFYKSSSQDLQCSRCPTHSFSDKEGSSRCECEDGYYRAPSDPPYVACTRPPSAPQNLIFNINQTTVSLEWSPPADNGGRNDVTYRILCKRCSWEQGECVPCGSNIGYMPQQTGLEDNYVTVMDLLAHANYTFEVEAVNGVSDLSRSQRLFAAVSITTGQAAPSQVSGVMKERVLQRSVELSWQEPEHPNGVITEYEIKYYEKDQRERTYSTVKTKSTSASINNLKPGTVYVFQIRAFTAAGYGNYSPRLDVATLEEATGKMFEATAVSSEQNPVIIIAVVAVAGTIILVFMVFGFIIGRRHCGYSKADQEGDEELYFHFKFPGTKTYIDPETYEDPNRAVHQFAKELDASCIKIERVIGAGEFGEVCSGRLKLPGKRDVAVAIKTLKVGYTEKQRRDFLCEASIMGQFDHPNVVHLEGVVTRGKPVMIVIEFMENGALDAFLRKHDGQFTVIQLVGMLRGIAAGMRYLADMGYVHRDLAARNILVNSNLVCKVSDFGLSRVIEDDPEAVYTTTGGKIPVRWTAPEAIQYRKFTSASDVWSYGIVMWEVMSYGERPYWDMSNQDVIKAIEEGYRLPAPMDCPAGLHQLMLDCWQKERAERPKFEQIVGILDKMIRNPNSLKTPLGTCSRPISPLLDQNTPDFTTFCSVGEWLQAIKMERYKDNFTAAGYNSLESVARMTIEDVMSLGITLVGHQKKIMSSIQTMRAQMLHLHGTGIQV
Method for ABL2 (Arg): as §1
Method for EPHA7: as §1
Method for EPHB1: as §1
Method for EPHB4: as §1
Method for SGK (SGK1): as §1

One may read the inhibition as the relative decrease from the control value, in per cent. In general, Inhibition refers to the drop in the measured response relative to a control, in per cent. As to `C#CCOc1ccc(Nc2ncc(Cl)c(Nc3ccccc3NC(=O)C=C)n2)c(OC)c1` [Compound 6], the Morphology entry with FES^S700C HL-60 cells [1] (100 nM WEL028) was “macrophage morphology”; in the test with FES^S700C HL-60 cells [1] (1 µM WEL028) it was “morphology is similar to non-differentiated cells”. Also, the Proliferation ratio in the test on FES^S700C HL-60 cells [2] was 1.625 and 1.925 and 1.9. For the same compound, the inhibition at 1 µM against ABL2 (Arg) (setting [4]) is -5%; against EPHA7 it was 4%; at EPHB1 (setting [4]), 0%; at EPHB4 (setting [4]) it was 1%; in test [3] (setting [4]), 2%; against SGK (SGK1) (setting [4]), 10%. The inhibition at 1 µM on SGK (SGK1) (read-out: Inhibition at 1 µM (%), 1 µM, ZLYTE, ATP Km app) is 10%. The “Inhibition at 1 µM (%)” value is -2% on ABL2 (Arg); -9% at ABL2 (Arg) (listed as WEL028, 1 µM); -1% and 1% at EPHB1 (EPHB1, 1 µM, ZLYTE, ATP Km app, listed as WEL028, 1 µM); 3% at EPHB4; -1% at EPHB4 (listed as WEL028, 1 µM); 4% and -1% in test [3] (PIK3CB/PIK3R2 (p110 beta/p85 beta), 1 µM, Adapta, ATP 10, listed as WEL028, 1 µM). In addition, on SGK (SGK1) (1 µM, ZLYTE, ATP Km app, listed as WEL028, 1 µM), the “Inhibition at 1 µM (%)” value is listed as 9%.

Source of the values: PMC7316778 (Nature Communications, 2020).
